How the values were obtained:
[1] = [M+H]+; instrument: TW; Major Mix IMS/Tof Calibration Kit (Waters)
[2] = instrument: DT, stepped-field

For `COc1cc(CCN)c(OC)cc1I` [2C-I], the “collision cross section (N2)” value [1] was 157.7 Å².
For `COc1ccc2[nH]cc(CCN(C)C)c2c1` [5-MeO-DMT], the “collision cross section (N2)” value [1] was 150.3 Å².
With `CCN(CC)CCc1c[nH]c2ccccc12` ["NN-Diethyltryptamine"] the “collision cross section (N2)” value [1] was 148.6 Å².
For `CN(C)CCc1c[nH]c2ccccc12` ["NN-Dimethyltryptamine"], the “collision cross section (N2)” value [1] was 143.5 Å².
For `Cc1ccc(/C(=C\CN2CCCC2)c2cccc(/C=C/C(=O)O)n2)cc1` [Acrivastine], the “collision cross section (N2)” value [1] was 193.9 Å².
For `COc1cc2nc(N(C)CCCNC(=O)C3CCCO3)nc(N)c2cc1OC` (stereo not given) [Alfuzosin], the “collision cross section (N2)” value [1] was 194.6 Å².
With `OCc1nnc2n1-c1ccc(Cl)cc1C(c1ccccc1)=NC2` [Alprazolam-M alpha-Hydroxy] the “collision cross section (N2)” value [1] was 173.3 Å².
In the case of `C=CCc1ccccc1OCC(O)CNC(C)C` (stereo not given) [Alprenolol], the “collision cross section (N2)” value [1] is reported as 159.5 Å².
For `CCCCc1oc2ccccc2c1C(=O)c1cc(I)c(OCCN(CC)CC)c(I)c1` [Amiodarone], the “collision cross section (N2)” value [1] was 226.4 Å².
In the case of `CN(C)CC/C=C1\c2ccccc2CC(O)c2ccccc21` (stereo not given) [Amitriptylin-M (E)-10-hydroxy], the “collision cross section (N2)” value [1] is reported as 167.6 Å².
For `CN(C)CCC=C1c2ccccc2CCc2ccccc21` [Amitriptyline], the “collision cross section (N2)” value [1] was 167.2 Å².
For `CCOC(=O)C1=C(COCCN)NC(C)=C(C(=O)OC)C1c1ccccc1Cl` (stereo not given) [Amlodipine], the “collision cross section (N2)” value [1] was 188 Å².
For `Clc1ccc2c(c1)C(N1CCNCC1)=Nc1ccccc1O2` [Amoxapine], the “collision cross section (N2)” value [1] was 170.2 Å².
In the case of `NCC(CC(=O)O)c1ccc(Cl)cc1` (stereo not given) [Baclofen], the “collision cross section (N2)” value [1] is reported as 149.2 Å².
With `C[C@@H](Cc1ccccc1)N(C)Cc1ccccc1` [Benzphetamine] the “collision cross section (N2)” value [1] was 154.8 Å².
With `CN1[C@@H]2CC[C@H]1C[C@@H](OC(c1ccccc1)c1ccccc1)C2` [Benztropine] the “collision cross section (N2)” value [1] was 180.8 Å².
In the case of `CC(C)NCC(O)COc1ccc(COCCOC(C)C)cc1` (stereo not given) [Bisoprolol], the “collision cross section (N2)” value [1] is reported as 192.2 Å².
With `CCC(NC)C(=O)c1ccc2c(c1)OCO2` (stereo not given) [Butylone] the “collision cross section (N2)” value [1] was 151 Å².
With `CCC(Br)(CC)C(=O)NC(N)=O` [Carbromal] the “collision cross section (N2)” value [1] was 139.8 Å².
With `Clc1ccc(C(c2ccccc2)N2CCNCC2)cc1` (stereo not given) [Cetirizine-M N-desalkyl] the “collision cross section (N2)” value [1] was 168.4 Å².
For `CCN(CC)CCCC(C)Nc1ccnc2cc(Cl)ccc12` (stereo not given) [Chloroquine], the “collision cross section (N2)” value [1] was 176.8 Å².
In the case of `CN(C)CC/C=C1/c2ccccc2Sc2ccc(Cl)cc21` [Chlorprothixene], the “collision cross section (N2)” value [1] is reported as 170.1 Å².
In the case of `C(=C\c1ccccc1)/CN1CCN(C(c2ccccc2)c2ccccc2)CC1` [Cinnarizine], the “collision cross section (N2)” value [1] is reported as 206.2 Å².
In the case of `CNCCC[C@@]1(c2ccc(F)cc2)OCc2cc(C#N)ccc21` [Citalopram-M N-desmethyl], the “collision cross section (N2)” value [1] is reported as 178.7 Å².
In the case of `Clc1cccc(Cl)c1NC1=NCCN1` [Clonidine], the “collision cross section (N2)” value [1] is reported as 144 Å².
In the case of `Clc1ccc2c(c1)N=C(N1CCNCC1)c1ccccc1N2` [Clozapine-M nor], the “collision cross section (N2)” value [1] is reported as 173.8 Å².
For `Clc1ccc2c(c1)CCc1cccnc1C2=C1CCNCC1` [Desloratadine], the “collision cross section (N2)” value [1] was 175.5 Å².
With `CN(C)CC(c1ccc(O)cc1)C1(O)CCCCC1` (stereo not given) [Desvenlafaxine] the “collision cross section (N2)” value [1] was 166.7 Å².
With `Cc1cccc(Cc2cnc[nH]2)c1C` [Detomidine] the “collision cross section (N2)” value [1] was 146.8 Å².
In the case of `COc1ccc2c3c1O[C@H]1[C@@H](O)CC[C@H]4[C@@H](C2)N(C)CC[C@@]341` [Dihydrocodeine], the “collision cross section (N2)” value [1] is reported as 168.6 Å².
In the case of `COc1ccc([C@@H]2Sc3ccccc3N(CCN(C)C)C(=O)[C@@H]2OC(C)=O)cc1` [Diltiazem], the “collision cross section (N2)” value [1] is reported as 197.8 Å².
With `CC(CCc1ccc(O)cc1)NCCc1ccc(O)c(O)c1` (stereo not given) [Dobutamine] the “collision cross section (N2)” value [1] was 168.2 Å².
With `CCN1CC(CCN2CCOCC2)C(c2ccccc2)(c2ccccc2)C1=O` (stereo not given) [Doxapram] the “collision cross section (N2)” value [1] was 183.4 Å².
For `CN(C)CCC=C1c2ccccc2COc2ccccc21` [Doxepin], the “collision cross section (N2)” value [1] was 164.3 Å².
With `CN1CCC[C@@H]1Cc1c[nH]c2ccc(CCS(=O)(=O)c3ccccc3)cc12` [Eletriptan] the “collision cross section (N2)” value [1] was 186.1 Å².
For `N=C(N)Nc1nc(CSCCC(=N)NS(N)(=O)=O)cs1` [Famotidine], the “collision cross section (N2)” value [1] was 165.9 Å².
For `O=C(NCC1CCCCN1)c1cc(OCC(F)(F)F)ccc1OCC(F)(F)F` (stereo not given) [Flecainide], the “collision cross section (N2)” value [1] was 192.2 Å².
With `OC(Cn1cncn1)(Cn1cncn1)c1ccc(F)cc1F` [Fluconazole] the “collision cross section (N2)” value [1] was 163.9 Å².
With `CCOC(=O)c1ncn2c1CN(C)C(=O)c1cc(F)ccc1-2` [Flumazenil] the “collision cross section (N2)” value [1] was 165.8 Å².
For `CNCCC(Oc1ccc(C(F)(F)F)cc1)c1ccccc1` (stereo not given) [Fluoxetine], the “collision cross section (N2)” value [1] was 176.5 Å².
In the case of `COCCCC/C(=N\OCCN)c1ccc(C(F)(F)F)cc1` [Fluvoxamine], the “collision cross section (N2)” value [1] is reported as 177 Å².
With `COc1ccc(CC(C)NCC(O)c2ccc(O)c(NC=O)c2)cc1` (stereo not given) [Formoterol] the “collision cross section (N2)” value [1] was 178.6 Å².
With `O=C1CN=C(c2ccccc2)c2cc(Cl)ccc2N1CC(F)(F)F` [Halazepam] the “collision cross section (N2)” value [1] was 170.9 Å².
In the case of `CC(=O)O[C@H]1C=C[C@H]2[C@H]3Cc4ccc(O)c5c4[C@@]2(CCN3C)[C@H]1O5` [Heroin-M 6-MAM], the “collision cross section (N2)” value [1] is reported as 175.1 Å².
For `C[C@]12CCC(=O)C=C1CC[C@@H]1[C@@H]2[C@@H](O)C[C@@]2(C)[C@H]1CC[C@]2(O)C(=O)CO` [Hydrocortisone], the “collision cross section (N2)” value [1] was 186.6 Å².
With `CN(C)CCCN1c2ccccc2CCc2ccccc21` [Imipramine] the “collision cross section (N2)” value [1] was 166.5 Å².
For `CCCCn1cc(C(=O)c2cccc3ccccc23)c2ccccc21` [JWH-073], the “collision cross section (N2)” value [1] was 182.5 Å².
With `CCN(CC)C(=O)[C@@H]1C=C2c3cccc4[nH]cc(c34)C[C@H]2N(C)C1` [LSD] the “collision cross section (N2)” value [1] was 179.5 Å².
In the case of `c1ccc([C@H]2CN3CCSC3=N2)cc1` [Levamisole], the “collision cross section (N2)” value [1] is reported as 144.6 Å².
With `CNC[C@@H](C)CN1c2ccccc2Sc2ccc(OC)cc21` [Levomepromazine-M N-desmethyl] the “collision cross section (N2)” value [1] was 174.3 Å².
For `CCN(CC)CC(=O)Nc1c(C)cccc1C` [Lidocaine], the “collision cross section (N2)” value [1] was 157.7 Å².
In the case of `CN(C)C(=O)C(CCN1CCC(O)(c2ccc(Cl)cc2)CC1)(c1ccccc1)c1ccccc1` [Loperamide], the “collision cross section (N2)” value [1] is reported as 222.7 Å².
With `CN1C(=O)C(O)N=C(c2ccccc2Cl)c2cc(Cl)ccc21` (stereo not given) [Lormetazepam] the “collision cross section (N2)” value [1] was 169.5 Å².
With `CCCCc1nc(Cl)c(CO)n1Cc1ccc(-c2ccccc2-c2nn[nH]n2)cc1` [Losartan] the “collision cross section (N2)” value [1] was 200.3 Å².
In the case of `CCC(Cc1ccc2c(c1)OCO2)NC` (stereo not given) [MBDB], the “collision cross section (N2)” value [1] is reported as 148.4 Å².
For `CCNC(C)Cc1ccc2c(c1)OCO2` (stereo not given) [MDEA], the “collision cross section (N2)” value [1] was 147.5 Å².
For `CC/C=C\C/C=C\C/C=C\C/C=C\C/C=C\C/C=C\CCC(=O)O[C@H](COC(=O)CCCCCCCCC/C=C\CCCCCCCCCC)COP(=O)(O)OC[C@H](N)C(=O)O` [PS(44:07)], the “collision cross section (N2)” value ([2]; [M+2Na-H]+) was 303.11 Å².
In the case of `CCCCCCCCCCCCC=CC[C@@H](O)[C@H](COP(=O)([O-])OCC[N+](C)(C)C)NC(=O)CCCCCCCCCCCCCCC` [SM(34:01)], the “collision cross section (N2)” value ([2]; [M+Cl]-) is reported as 284.26 Å², the “collision cross section (N2)” value ([2]; [M+HCOO]-) is reported as 284.66 Å² and the “collision cross section (N2)” value ([2]; [M+H]+) is reported as 280.06 Å². For the same molecule, the “collision cross section (N2)” value ([2]; [M+Na]+) was 278.77 Å².
For `CCCCCCCCCCCCC=CC[C@@H](O)[C@H](COP(=O)([O-])OCC[N+](C)(C)C)NC(=O)CCCCCCCCCCCCCCCCC` [SM(36:01)], the “collision cross section (N2)” value ([2]; [M+Cl]-) was 288.69 Å², the “collision cross section (N2)” value ([2]; [M+HCOO]-) was 290.34 Å² and the “collision cross section (N2)” value ([2]; [M+H]+) was 286.24 Å². For the same molecule, the “collision cross section (N2)” value ([2]; [M+K]+) was 288.38 Å², the “collision cross section (N2)” value ([2]; [M+Na-H2O]+) was 280.09 Å² and the “collision cross section (N2)” value ([2]; [M+Na]+) was 285.86 Å².
For `CCCCCCCCCCCCC=CC[C@@H](O)[C@H](COP(=O)([O-])OCC[N+](C)(C)C)NC(=O)CC=CCCCCCCCCCCCCCCCCCC` [SM(40:02)], the “collision cross section (N2)” value ([2]; [M+Cl]-) was 299.55 Å², the “collision cross section (N2)” value ([2]; [M+HCOO]-) was 299.75 Å² and the “collision cross section (N2)” value ([2]; [M+H]+) was 295.66 Å². The “collision cross section (N2)” value ([2]; [M+Na]+) was 292.53 Å².
In the case of `CCCCCCCCCCCCCCCCCCCCCCCC(=O)N[C@@H](COP(=O)([O-])OCC[N+](C)(C)C)[C@H](O)CCCCCCCCCCCCCCC` [SM(42:00)], the “collision cross section (N2)” value ([2]; [M+HCOO]-) is reported as 308.73 Å² and the “collision cross section (N2)” value ([2]; [M+H]+) is reported as 305.33 Å².
With `CCCCCCCCCCCCC=CC[C@@H](O)[C@H](COP(=O)([O-])OCC[N+](C)(C)C)NC(=O)CC=CCCCCCCCCCCCCCCCCCCCCCC` [SM(44:02)] the “collision cross section (N2)” value ([2]; [M+H]+) was 307.52 Å² and the “collision cross section (N2)” value ([2]; [M+Na]+) was 306.5 Å².
